We go through one compound from patent US20230174454A1, “PROCESS OF SYNTHESIZING AND PURIFYING (3R)-HYDROXYBUTYL (3R)-HYDROXYBUTANOATE” (Genomatica, Inc., priority 2020, published 2023).

Series [1] in a line: Study to determine the boiling point of (3R)-hydroxybutyl (3R)-hydroxybutyrate, with colour change on boiling. It counts as physicochemical. Here is the method: A study to determine the boiling point of (3R)-hydroxybutyl (3R)-hydroxybutyrate was performed.
The nature of a further series: Miscibility with water. It counts as physicochemical. An excerpt:
In one specific embodiment, the compound of interest is (R)-3-hydroxybutyl (R)-3-hydroxybutanoate.

In the case of `C[C@@H](O)CCOC(=O)C[C@@H](C)O` [(3R)-hydroxybutyl (3R)-hydroxybutyrate, (R)-3-hydroxybutyl (R)-3-hydroxybutanoate], the “Measured Boiling Point” value is 155-159 °C in series [1] (Pressure 7 mbar); 165-169 °C in series [1] (Pressure 15 mbar); 174-179 °C in series [1] (Pressure 30 mbar); 186-191 °C in series [1] (Pressure 60 mbar); 197-204 °C in series [1] (Pressure 80 mbar); 208-212 °C in series [1] (Pressure 120 mbar). Besides, the entries for the “Measured Boiling Point” value in series [1] (Pressure 240 mbar), in series [1] (Pressure 500 mbar) and in series [1] (Pressure 1000 mbar) were 215-219 °C, 224-229 °C and 274-280 °C, respectively. Further, the “Color Change” value was “no color change after 2 h of boiling” in series [1] (boiling at 7 mbar); “no color change after 2 h of boiling” in series [1] (boiling at 15 mbar); “no color change after 2 h of boiling” in series [1] (boiling at 30 mbar); “no color change after 2 h of boiling” in series [1] (boiling at 60 mbar); “no color change after 2 h of boiling” in series [1] (boiling at 80 mbar); “no color change after 1 h of boiling, very slight yellow tint is present after 1 h and 30 min of boiling” in series [1] (boiling at 120 mbar). Besides, the “Color Change” value in series [1] (boiling at 240 mbar) is “no color change after 1 h of boiling, very slight yellow tint is present after 1 h and 30 min of boiling”; in series [1] (boiling at 500 mbar), “no color change after 1 h of boiling, very slight yellow tint is present after 1 h and 30 min of boiling”; in series [1] (boiling at 1000 mbar), “slight yellow tint is present after 1 hour of boiling”. Further, the miscibility with water result in the series “Miscibility with water” (50/50 (w/w) mixture of water/(R)-3-hydroxybutyl (R)-3-hydroxybutanoate) and in the series “Miscibility with water” (60/40 (w/w) mixture of water/(R)-3-hydroxybutyl (R)-3-hydroxybutanoate) was “completely miscible with water” each time.
